Converted amounts (≈) assume the structure as drawn.
What was measured:
Plasmodium falciparum [1] = experiment: Antimalarial activity against chloroquine and pyrimethamine-resistant Plasmodium falciparum W2 infected in human A positive erythrocytes after 72 hrs by SYBR Green I assay; format: functional, organism-based; details: W2, 72 h
Plasmodium falciparum [2] = experiment: Antimalarial activity against chloroquine, mefloquine, pyrimethamine and atovaquone-resistant Plasmodium falciparum TM90-C2B infected in human A positive erythrocytes after 72 hrs by SYBR Green I assay; format: functional, organism-based
Plasmodium falciparum [3] = experiment: Resistance index, ratio of EC50 for chloroquine, mefloquine, pyrimethamine and atovaquone-resistant Plasmodium falciparum TM90-C2B to EC50 for chloroquine and pyrimethamine-resistant Plasmodium falciparum W2; format: functional
J774 = experiment: Cytotoxicity against mouse J774 cells after 72 hrs by Cell titer 96 aqueous one solution cell proliferation assay; format: cell-based; details: J774, 72 h
[4] = Aqueous solubility of compound at pH 7.4 by HPLC analysis; details: buffer
[5] = Permeability of the compound by PAMPA method at pH 7.4; format: ADME; details: read-out: permeability
[6] = Partition coefficient, log D of the compound at pH 7.4 by HPLC analysis; details: octanol/water
[7] = (§1) Stability in mouse liver microsomes; format: ADME, Microsome; details: liver microsomes
[8] = Cytotoxicity index, ratio of EC50 for mouse J774 cells to EC50 for chloroquine, mefloquine, pyrimethamine and atovaquone-resistant Plasmodium falciparum TM90-C2B; format: cell-based; details: read-out: Ratio EC50
Liver = experiment: as §1; format: ADME, Microsome; details: microsomes
Plasmodium falciparum [9] = experiment: Antimalarial activity against Plasmodium falciparum D6 infected in human A positive erythrocytes after 72 hrs by SYBR Green I assay; format: functional, organism-based; details: D6, 72 h

SMILES	EC50 (Plasmodium falciparum [1])	EC50 (Plasmodium falciparum [2])	Ratio EC50 (Plasmodium falciparum [3])	EC50 (J774)	solubility [4]	Papp [5]	logD [6]	half-life [7]	selectivity ratio [8]	Stability (Liver)	EC50 (Plasmodium falciparum [9])
COc1ccc2c(=O)c3c([nH]c2c1)CCC(C)(C)C3	54.3 nM	175 nM	3.22	> 40000 nM	61 µM (≈ 15.7 µg/mL)	88 ×10⁻⁶ cm/s	2.2	77 min	≥ 100		
COc1ccc2c(=O)c3c([nH]c2c1)CC(C)(C)CC3	355 nM	112 nM	0.32	> 40000 nM	92 µM (≈ 23.7 µg/mL)	64 ×10⁻⁶ cm/s	2.2	24.8 min	≥ 100		
Cc1cc(Oc2ccc(OC(F)(F)F)cc2)ccc1-c1ccc2[nH]c3c(c(=O)c2c1)CSCC3	27.7 nM	326 nM	11.8	> 5000 nM	7 µM (≈ 3.38 µg/mL)	< 1 ×10⁻⁶ cm/s	3.6	15.1 min	≥ 100		
O=c1c2c([nH]c3ccc(-c4ccc(COc5ccc(OC(F)(F)F)cc5)cc4)cc13)CCSC2	129 nM	2840 nM	22	> 10000 nM	12 µM (≈ 5.8 µg/mL)	3 ×10⁻⁶ cm/s	3.5		≥ 100		
O=c1c2c([nH]c3ccc(-c4ccc(COc5ccccc5)cc4)cc13)CCSC2	44.5 nM	706 nM	15.9	> 1000 nM	1 µM (≈ 0.4 µg/mL)	7 ×10⁻⁶ cm/s	2.8		≥ 100		
O=c1c2c([nH]c3ccc(-c4ccc(OCc5ccccc5)cc4)cc13)CCSC2	35.9 nM	370 nM	10.3	> 1000 nM	1 µM (≈ 0.4 µg/mL)	< 1 ×10⁻⁶ cm/s	2.8		≥ 100		
O=c1c2c([nH]c3ccc(-c4ccc(C(F)(F)F)cc4)cc13)CCSC2	101 nM	293 nM	2.9	> 10000 nM	10 µM (≈ 3.61 µg/mL)	< 1 ×10⁻⁶ cm/s	2.4	11.2 min	≥ 100		
O=c1c2c([nH]c3ccc(-c4ccc(C(F)(F)F)cc4)cc13)CCCC2	58.2 nM	44.9 nM	0.77	> 2000 nM	2 µM (≈ 0.687 µg/mL)	36 ×10⁻⁶ cm/s	3.6		≥ 100	Stable	
O=c1c2c([nH]c3cc(-c4ccc(C(F)(F)F)cc4)ccc13)CCCC2	34.9 nM	8.7 nM	0.24	> 2000 nM	3 µM (≈ 1.03 µg/mL)	250 ×10⁻⁶ cm/s	2.45		≥ 100	Stable	
O=c1c2c([nH]c3cc(-c4c(F)cccc4F)ccc13)CCCC2	72.3 nM	25.3 nM	0.35	> 100 nM	0.3 µM (≈ 0.0934 µg/mL)	339 ×10⁻⁶ cm/s	3		≥ 100		
CN(C)c1ccc(-c2ccc3c(=O)c4c([nH]c3c2)CCCC4)cc1	99.2 nM	161 nM	1.62	> 10000 nM	11 µM (≈ 3.5 µg/mL)	199 ×10⁻⁶ cm/s	1.3		≥ 100		
O=c1c2c([nH]c3cc(-c4ccc(Oc5ccc(OC(F)(F)F)cc5)cc4)ccc13)CCCC2	12.2 nM	9.1 nM	0.75	> 100 nM	0.1 µM (≈ 0.0451 µg/mL)	18 ×10⁻⁶ cm/s	3.8	173 min	≥ 100		
COc1ccc2c(=O)c3c([nH]c2c1)CCCC3	89.9 nM	99.9 nM	1.11	> 40000 nM	82 µM (≈ 18.8 µg/mL)	25 ×10⁻⁶ cm/s	1.9	6.8 min	≥ 100		
Cc1cccc2c(=O)c3c([nH]c12)CCCC3	2200 nM	888 nM	0.4	> 40000 nM	47 µM (≈ 10 µg/mL)	26 ×10⁻⁶ cm/s	1.9	6.4 min	≥ 100		
Cc1ccc2c(=O)c3c([nH]c2c1)CCCC3	150 nM	152 nM	1.01	> 40000 nM	89 µM (≈ 19 µg/mL)	27 ×10⁻⁶ cm/s	2	20.1 min	≥ 100		
O=c1c2c([nH]c3cc(F)cc(F)c13)CCCC2	16.5 nM	45 nM	2.72	> 2000 nM	3 µM (≈ 0.706 µg/mL)	13 ×10⁻⁶ cm/s	1.5	3.6 min	≥ 100		
COc1cc2[nH]c3c(c(=O)c2cc1Cl)CC(F)(F)CC3	76.7 nM	5.6 nM	0.07	> 10000 nM	10 µM (≈ 3 µg/mL)	107 ×10⁻⁶ cm/s	2.1	8.5 min	≥ 100		
O=c1c2c([nH]c3ccc(Cl)cc13)CCC(F)(F)C2	148 nM	226 nM	1.52	> 2000 nM	4 µM (≈ 1.08 µg/mL)	62 ×10⁻⁶ cm/s	2	40.8 min	≥ 100		
COc1ccc2c(=O)c3c([nH]c2c1)CCC(F)(F)C3	343 nM	351 nM	1.02	> 10000 nM	14 µM (≈ 3.71 µg/mL)	39 ×10⁻⁶ cm/s	1.6	15.8 min	≥ 100		
COc1cc2[nH]c3c(c(=O)c2cc1Cl)C[S+]([O-])CC3 (stereo not given)	4710 nM	1360 nM		> 40000 nM			1.3	990 min			
COc1cc2[nH]c3c(c(=O)c2cc1Cl)CS(=O)(=O)CC3	4710 nM	8410 nM	1.76	> 20000 nM	24 µM (≈ 7.53 µg/mL)		1		≥ 100	Stable	
Cc1cc(Cl)ccc1-c1ccc2[nH]c3c(c(=O)c2c1)CSCC3	34.6 nM	23.2 nM	0.67	> 2000 nM	2 µM (≈ 0.684 µg/mL)	< 1 ×10⁻⁶ cm/s	2.4	8.4 min	≥ 100		
O=c1c2c([nH]c3ccccc13)CCCC2	719 nM	325 nM	0.45	> 40000 nM	24 µM (≈ 4.78 µg/mL)	10 ×10⁻⁶ cm/s	3	18.2 min	≥ 100		
O=C1CC(c2ccc(C(F)(F)F)cc2)Cc2c1c(=O)c1cc(Cl)ccc1n2O (stereo not given) [FLOXACRINE]	478 nM								≥ 100		270 nM
